Where a SMILES comes first, the peptide text is derived from it. [ ]: non-standard residue; d: D form. βAla = NCCC(=O)O

Common to all, as to format: in vitro ADME, human
What all share (settings): human, 24 h, LC-MS

Data set [1] is described as follows: Soluble peptide degradation, Cells condition (LC-MS). How it is done: (§1) Most in vitro protease activity assays incubate the peptides or proteins of interest with a single protease in a buffered solution. However, the kinetics of protease activity in tissues are complex and highly regulated, and both the activity^[ [37] ^] and substrate specificity^[ [38] ^] of proteases can be modulated through association with other proteins.^[ [39] ^] Most MMP‐substrate peptides are also cleaved by multiple proteases,^[ [5] ^] and within the context of biomaterials, the most important factor is typically how the combined activity of all proteases, rather than the activity of any specific protease, modifies the local microenvironment versus the activity due to any individual enzyme. We synthesized peptides identified in the TAILS proteomic screen that were present on proteins that are known to be secreted or found on the cell membrane, pooled them, and added them either to cell culture media on top of cells, the “Cells” condition, or conditioned media lacking cells, the “Media” condition (Figure 2A). The fraction of peptides remaining after 24 h in each condition was then quantified using LC‐MS. Soluble proteases should be present in both conditions, however, membrane‐type proteases should primarily be found in the samples containing cells and not the conditioned media samples. A key benefit of this approach is that it surveys the total functional proteolytic activity, including the effects of inhibitors and co‐factors, and quantifies the degradation rate of soluble peptides by the complete secretome of different cell types.
(§2) hUVECs (75000 per well) or hMSCs (36000 per well) were seeded into a 48 well plate, and 500 µL media was added to the wells. […] The peptide libraries were dissolved at a stock solution of 10 mM total peptide content. For libraries containing 38 peptides, 95 µL of the stock solution was added to each well; for libraries with 19 peptides, 47.5 µL was added to each well, and media was taken at 0 and 24 h. Add 4 µL of acetic acid to all collected media in the LC‐MS plates and store them in a −80 °C freezer to prevent further proteolytic degradation. From each sample, 10 µL of crude solution was introduced by the LC‐MS through a Thermo Scientific Vanquish LC System (Thermo Fisher Scientific), which outputted to a Thermo Scientific LTQ XL Linear Ion Trap Mass Spectrometer (Thermo Fisher Scientific). The sampled mixture was trapped on a column (ProntoSIL C18 AQ, 120 Å, 3 µm, 2.0 x 50 mm HPLC Column, PN 0502F184PS030, MAC‐MOD Analytical Inc.). The samples were loaded onto the column with a solvent containing acetonitrile/water, 5:95 (v/v) containing 1% acetic acid at a flow rate of 300 µL min^−1 and held for 1 min. The sample was then eluted from the column with a linear gradient of 5–40% Solvent B (1% acetic acid in acetonitrile) at the same flow rate for 5 min. This was followed by a 1 min ramp up to 100% Solvent B, where it was re‐equilibrated with Solvent A (1% acetic acid) to 5% solvent B over the course of 1 min and held there for 2 min. The column temperature was kept at a constant 29 °C, and the mass spectrometer was operated in positive ion mode. Using a Heated ESI, the Source Voltage was set to 4.1 kV, and the capillary temperature was 350 °C. For non‐library degradation studies, 2.5 µL of 10 mM peptide stock solution for each peptide was added.
In the MMP‐14 inhibitor study, the MMP‐14 inhibitor NSC 405 020 (Cayman Chemical Company) was dissolved in DMSO to make a 10 mM stock solution and stored in −20 °C freezer. 0.5 µL MMP‐14 inhibitor stock solution was added to each well to achieve a 10 µM final concentration.
For all degradation studies using soluble peptides, a non‐proteolytically degradable NH2‐βFβAβAβAβAβAβA‐amide (βFβA6) peptide, where βF is β‐phenylalanine and βA is β‐alanine, was added at a 50 µM concentration and used as an internal standard. Peptide degradation ratios were measured by LC‐MS and analyzed by Xcalibur. […]

Data set [2] is described as follows: Soluble peptide degradation, Media condition (cell-conditioned media, LC-MS). How it is done:
as §1, §2
(§3) To assess the activity of the conditioned media, the media were divided into two equal portions. One portion was used for a standard degradation study, while the other was cultured for an additional 24 h before the PanMMP and KLVADLMASAE were added. After 24 h of incubation, the media were collected for further analysis. To assess the impact of recombinant MMP‐14 on PanMMP and KLVADLMASAE, recombinant MMP‐14 (antibodies.com) was dissolved in the media at a concentration of 0.5 nM. The remaining steps followed the standard degradation study protocol. […]

Assay in data set [3]: as above
As to the method: as §1, §2, §3
This is another data set of the same source.

Setting [4] is: hMSCs in culture with fresh media (Cells condition), Figure 3B heatmap, split-and-pool libraries KLVADX1X2ASAE (19 or 38 peptides per library) in media on hMSCs, ratio to βFβA6, N = 2, read-out: Fraction of peptide remaining after 24 hours: hMSC Cells.
The mark [5] stands for this setting: hUVECs in culture with fresh media (Cells condition), Figure 3B heatmap, split-and-pool libraries KLVADX1X2ASAE in media on hUVECs, ratio to βFβA6, N = 2, read-out: Fraction of peptide remaining after 24 hours: hUVEC Cells.
Setting [6] is: hUVEC-conditioned media without cells (Media condition), Figure 3B heatmap, split-and-pool libraries KLVADX1X2ASAE in hUVEC-conditioned media without cells, ratio to βFβA6, N = 2, read-out: Fraction of peptide remaining after 24 hours: hUVEC Media.
[7] abbreviates: hMSC-conditioned media without cells (Media condition), Figure 3B heatmap, split-and-pool libraries KLVADX1X2ASAE in hMSC-conditioned media without cells, ratio to βFβA6, N = 2, read-out: Fraction of peptide remaining after 24 hours: hMSC Media.
[8] abbreviates: hMSCs in culture with fresh media (Cells condition), Figure 2B heatmap, pooled TAILS-derived soluble peptides (Ac-βAla N-terminus, βAla-amide C-terminus) in media on hMSCs (36000 per well, 48 well plate, 500 µL), ratio to βFβA6 internal standard, 24 h / 0 h, N = 5, read-out: Fraction of peptide remaining at 24 hours: hMSC Cells.
Where [9] appears, read: Figure 2B heatmap, pooled TAILS-derived soluble peptides in 24 h hUVEC-conditioned media without cells, ratio to βFβA6 internal standard, 24 h / 0 h, N = 5, read-out: Fraction of peptide remaining at 24 hours: hUVEC Media.
The mark [10] stands for this setting: Figure 2B heatmap, pooled TAILS-derived soluble peptides in 24 h hMSC-conditioned media without cells, ratio to βFβA6 internal standard, 24 h / 0 h, N = 5, read-out: Fraction of peptide remaining at 24 hours: hMSC Media.
The mark [11] stands for this setting: hUVECs in culture with fresh media (Cells condition), Figure 2B heatmap, pooled TAILS-derived soluble peptides in media on hUVECs (75000 per well, 48 well plate, 500 µL), ratio to βFβA6 internal standard, 24 h / 0 h, N = 5, read-out: Fraction of peptide remaining at 24 hours: hUVEC Cells.

As for `CC(=O)NCCC(=O)N[C@@H](CCCCN)C(=O)N[C@@H](CC(C)C)C(=O)N[C@H](C(=O)N[C@@H](C)C(=O)N[C@@H](CC(=O)O)C(=O)N[C@@H](CC(N)=O)C(=O)N1CCC[C@H]1C(=O)N[C@@H](C)C(=O)N[C@@H](CO)C(=O)N[C@@H](C)C(=O)N[C@@H](CCC(=O)O)C(=O)NCCC(N)=O)C(C)C` [Asn-Pro] (Ac-[βAla]KLVADNPASAE[βAla]-NH2), the amount remaining at 24 h in data set [1] (cells or culture medium, Figure 3B heatmap, split-and-pool libraries KLVADX1X2ASAE (19 or 38 peptides per library) in media on hMSCs, ratio to βFβA6, N = 2, read-out: Fraction of peptide remaining after 24 hours: hMSC Cells) came to 54%; in data set [1] (cells or culture medium, Figure 3B heatmap, split-and-pool libraries KLVADX1X2ASAE in media on hUVECs, ratio to βFβA6, N = 2, read-out: Fraction of peptide remaining after 24 hours: hUVEC Cells), 91%; in data set [2] (cells or culture medium, Figure 3B heatmap, split-and-pool libraries KLVADX1X2ASAE in hUVEC-conditioned media without cells, ratio to βFβA6, N = 2, read-out: Fraction of peptide remaining after 24 hours: hUVEC Media), 98%; in data set [3] (cells or culture medium, Figure 3B heatmap, split-and-pool libraries KLVADX1X2ASAE in hMSC-conditioned media without cells, ratio to βFβA6, N = 2, read-out: Fraction of peptide remaining after 24 hours: hMSC Media) it was 84%.
As for `CC(=O)NCCC(=O)N[C@@H](CCCCN)C(=O)N[C@@H](CC(C)C)C(=O)N[C@H](C(=O)N[C@@H](C)C(=O)N[C@@H](CC(=O)O)C(=O)N[C@@H](CC(C)C)C(=O)N[C@@H](CC(C)C)C(=O)N[C@@H](C)C(=O)N[C@@H](CO)C(=O)N[C@@H](C)C(=O)N[C@@H](CCC(=O)O)C(=O)NCCC(N)=O)C(C)C` [Leu-Leu] (Ac-[βAla]KLVADLLASAE[βAla]-NH2), the share remaining at 24 h turned out to be 41% in data set [1] (setting [4]), 91% in data set [1] (setting [5]), 97% in data set [2] (setting [6]) and 73% in data set [3] (setting [7]).
`CC(=O)NCCC(=O)N[C@@H](CCC(=O)O)C(=O)N[C@@H](CCC(=O)O)C(=O)N[C@@H](CO)C(=O)N[C@@H](CO)C(=O)N[C@@H](Cc1c[nH]c2ccccc12)C(=O)NCC(=O)NCC(=O)N[C@@H](CO)C(=O)N1CCC[C@H]1C(=O)N[C@@H](CO)C(=O)N1CCC[C@H]1C(=O)N[C@H](C(=O)N[C@@H](CCCNC(=N)N)C(=O)NCCC(N)=O)C(C)C` [EESSWGGSPSPVR] (Ac-[βAla]EESSWGGSPSPVR[βAla]-NH2): the fraction remaining at 24 h in data set [1] (setting [8]) came to 89%; in data set [2] (setting [9]) it was 102%; in data set [3] (setting [10]) it was 99%.
Turning to `CC(=O)NCCC(=O)N[C@@H](CCCCN)C(=O)N[C@@H](CC(C)C)C(=O)N[C@H](C(=O)N[C@@H](C)C(=O)N[C@@H](CC(=O)O)C(=O)N[C@@H](CO)C(=O)N[C@@H](Cc1c[nH]c2ccccc12)C(=O)N[C@@H](C)C(=O)N[C@@H](CO)C(=O)N[C@@H](C)C(=O)N[C@@H](CCC(=O)O)C(=O)NCCC(N)=O)C(C)C` [Ser-Trp] (Ac-[βAla]KLVADSWASAE[βAla]-NH2), the fraction remaining at 24 h amounted to 40% in data set [1] (setting [4]), 86% in data set [1] (setting [5]), 95% in data set [2] (setting [6]) and 72% in data set [3] (setting [7]).
On to `CC[C@H](C)[C@H](NC(=O)[C@@H](NC(=O)[C@H](CCSC)NC(=O)[C@@H]1CCCN1C(=O)[C@H](CCCCN)NC(=O)[C@H](CCCCN)NC(=O)CCNC(C)=O)[C@@H](C)O)C(=O)N[C@@H](C)C(=O)N[C@@H](CCCNC(=N)N)C(=O)N[C@@H](CC(C)C)C(=O)N[C@@H](CC(N)=O)C(=O)N[C@@H](C)C(=O)N[C@@H](CCCCN)C(=O)N[C@@H](CCCCN)C(=O)NCCC(N)=O` [KKPMTIARLNAKK] (Ac-[βAla]KKPMTIARLNAKK[βAla]-NH2), for which the fraction remaining at 24 h came out at 75% in data set [1] (setting [8]), 73% in data set [1] (setting [11]), 74% in data set [2] (setting [9]) and 94% in data set [3] (setting [10]).
For `CC(=O)NCCC(=O)N[C@@H](CCC(=O)O)C(=O)N[C@@H](CO)C(=O)N[C@@H](CO)C(=O)N[C@@H](Cc1c[nH]cn1)C(=O)N[C@@H](CC(N)=O)C(=O)N[C@H](C(=O)N[C@@H](Cc1ccc(O)cc1)C(=O)N[C@@H](CC(C)C)C(=O)N[C@H](C(=O)N[C@@H](CCC(N)=O)C(=O)NCCC(N)=O)[C@@H](C)O)[C@@H](C)O` [ESSHNTYLTQ] (Ac-[βAla]ESSHNTYLTQ[βAla]-NH2), the amount remaining at 24 h stood at 88% in data set [1] (setting [8]), 100% in data set [1] (setting [11]), 102% in data set [2] (setting [9]) and 98% in data set [3] (setting [10]).
For `CC[C@H](C)[C@H](NC(=O)CCNC(C)=O)C(=O)N[C@H](C(=O)N[C@@H](CCCCN)C(=O)N[C@H](C(=O)N[C@@H](CC(=O)O)C(=O)N[C@H](C(=O)N1CCC[C@H]1C(=O)N[C@@H](CC(=O)O)C(=O)N[C@@H](CCSC)C(=O)N[C@H](C(=O)NCCC(N)=O)C(C)C)[C@@H](C)CC)[C@@H](C)O)C(C)C` [IVKTDIPDMV] (Ac-[βAla]IVKTDIPDMV[βAla]-NH2) the same measures were 96%, 106%, 102% and 101%.
Consider `CSCC[C@H](NC(=O)[C@H](CC(=O)O)NC(=O)[C@H](C)NC(=O)[C@@H](NC(=O)[C@H](CC(C)C)NC(=O)[C@H](CCCCN)NC(=O)CCNC(C)=O)C(C)C)C(=O)N[C@@H](C)C(=O)N[C@@H](C)C(=O)N[C@@H](CO)C(=O)N[C@@H](C)C(=O)N[C@@H](CCC(=O)O)C(=O)NCCC(N)=O` [Met-Ala] (Ac-[βAla]KLVADMAASAE[βAla]-NH2), for which the share remaining at 24 h was 38% in data set [1] (setting [4]), 88% in data set [1] (setting [5]), 97% in data set [2] (setting [6]) and 61% in data set [3] (setting [7]).

For the origin of these results see PMC12683216, “Using High‐Throughput Screening to Identify Crosslinking Peptides That Control Cell‐Mediated Matrix Degradation” (Advanced Healthcare Materials, 2025).
